From patent US10667512B2, “Terpene-containing compositions and methods of making and using them” (Eden Research PLC, priority 2005, dated 2020)
Where two headings read alike, the source gives them in different places.

Key:
H. pylori = settings: in vitro; cited from earlier work
S. aureus = assay: MIC of terpene emulsions and fresh or freeze-dried Baker's YP / SAF Mannan encapsulated terpenes; assay type: cell-based; settings: for MIC, Bakers Freeze Dried / MIC, Bakers Fresh: encapsulated in Baker's YP; for MIC, SAF Mannan Freeze Dried / MIC, SAF Mannan Fresh: encapsulated in SAF Mannan; for MIC, Emulsion: terpene emulsion
Description: The results of a protocol performed to compare the MIC of fresh versus freeze dried hollow glucan particle encapsulated terpene formulations are shown below in Table 13. A simple terpene emulsion was also tested and the results are shown for comparison.

[1] = Terpene loading into yeast particles, absence of free terpene after centrifugation; assay type: physicochemical; settings: for Vol. loaded: 500 μl of 250 mg/ml; for % Loaded w/w: terpene to particle weight; for terpene emulsion absorbed and encapsulated per 10 mg of YP: Baker's YP 20 mg/ml; for terpene emulsion absorbed and encapsulated per 125 mg of YP: Baker's YP 250 mg/ml
Description: (§1) Samples were centrifuged at 14,000×g for 10 minutes and the appearance of free terpene floating on the aqueous layer was scored.
The expression “free terpene” refers to the visible presence of terpene in the centrifuged reaction mixture. The absence of free terpene indicates complete absorption of the terpene by the particles. The highest volume of terpene absorbed by the particles, as evidenced by the absence of free terpene, was recorded as the maximal volume of absorbed terpene emulsion.
as §1
The expression “free terpene” refers to the visible presence of terpene in the centrifuged reaction mixture. The absence of free terpene indicates complete absorption of the terpene by the YP. The highest volume of terpene absorbed by the YP, as evidenced by the absence of free terpene, was recorded as the maximal volume of absorbed terpene emulsion.
Increasing volumes of terpene emulsion were mixed with 250 mg/ml Baker's YP or 250 mg/ml SAF Mannan™ overnight at room temperature as shown in Tables 7 and 8. Samples were centrifuged at 14,000×g for 10 minutes and the appearance of free terpene floating on the aqueous layer was scored. The highest volume of terpene emulsion absorbed by Baker's YP or SAF Mannan™ as evidenced by the absence of free terpene was recorded as the volume of absorbed terpene emulsion. Colour of encapsulated terpenes in the pellet was recorded.
Percentage loaded represents a ratio of the amount of terpene loaded to the amount of particle present (weight for weight).

[2] = assay type: physicochemical
Description: The reactions were incubated for 1, 3, 6, 9 and 24 hours at room temperature or 37° C. After incubation samples were centrifuged at 14,000×g for 10 minutes and the appearance of free terpene floating on the aqueous layer was scored. The highest volume of terpene absorbed by the particles as evidenced by the absence of free terpene was recorded as the volume of absorbed terpene emulsion. Colour of the encapsulated pellet was scored at 24 hours.

E. coli = settings: cited from earlier work
[3] = Citral solution and stable suspension; assay type: physicochemical
Source text: In one embodiment the terpene component includes one or more terpenes which contain oxygen.

| Compound | concentration that inhibited the growth of H. pylori (H. pylori) [mg/L] | MIC, Bakers Freeze Dried (S. aureus) [μg/ml terpene] | MIC, Bakers Fresh (S. aureus) [μg/ml terpene] | MIC, SAF Mannan Freeze Dried (S. aureus) [μg/ml terpene] | MIC, SAF Mannan Fresh (S. aureus) [μg/ml terpene] | MIC, Emulsion (S. aureus) [μg/ml terpene] | Vol. loaded ([1]; maximal loading in Baker's YP) [µL] | % Loaded w/w ([1]; maximal loading in Baker's YP) [% w/w] | Vol. loaded ([1]; maximal loading in SAF Mannan) [µL] | % Loaded w/w ([1]; maximal loading in SAF Mannan) [% w/w] | protection of citral from oxidation ([2]; in Baker's YP) | protection of citral from oxidation ([2]; in SAF Mannan) | concentration in growth media that reduced the concentration of E. coli (E. coli) | concentration with bactericidal effect (E. coli) [%] | terpene emulsion absorbed and encapsulated per 10 mg of YP [1] | terpene emulsion absorbed and encapsulated per 125 mg of YP [1] | concentration up to which a solution can be made [3] | concentration up to which a stable suspension can be formed [3] |
| --- | --- | --- | --- | --- | --- | --- | --- | --- | --- | --- | --- | --- | --- | --- | --- | --- | --- | --- |
| CC(C)=CCC/C(C)=C/CO [Geraniol] | 2 | 0.06 | 0.03 | >0.03 | 0.02 | 0.47 | 75 | 67 | 150 | 133 | – | – | – | – | – | – | – | – |
| CC(C)=CCCC(C)=CC=O [Citral, 3,7-dimethyl-2,6-octadien-1-al] | – | 0.05 | 0.01 | >0.03 | 0.01 | 0.94 | 75 | 67 | 150 | 133 | not by the Baker's YP | protected from oxidation | more than 0.01% | 0.08 | at least 5 μl | at least 75 μl | up to 500 ppm | up to 2500 ppm |
| C=CCc1ccc(O)c(OC)c1 [Eugenol] | – | 0.05 | 0.03 | 0.05 | 0.01 | 0.12 | 75 | 67 | 112.5 | 100 | – | – | – | – | – | – | – | – |
| L-carvone | – | >0.04 | 0.1 | >0.02 | 0.01 | 3.75 | 37.5 | 33.3 | 112.5 | 100 | – | – | – | – | at least 16.5 μl | at least 112.5 μl | – | – |
